Data on two compounds can be found in patent US4476114A, “Iron-selenium preparation” (Orion-yhtyma Oy, priority 1982, dated 1984).

Several values for one entry are separate records, joined by “and”; a condition that tells them apart may be missing. Identical values can stand only once.

For series [1] the following is noted: in words; background statement; cited from earlier work.
The nature of series [2]: Serum selenium content in selenium-deficient pigs (Table 1). It counts as in vivo. Particulars: 0.06 mg Se/kg i.m. On the procedure:
(§1) The new type of preparation containing sodium selenite and ferric dextran was administered intramuscularly to three pigs, weight 15 . . . 25 kg, suffering from selenium deficiency. Another three pigs suffering from selenium deficiency were given the same dose of sodium selenite. Serum selenium content and glutathione peroxidase enzyme activity were determined as a measure of the bioactivity of selenium in the organism. […] All the pigs were on the same diet throughout the test period.
(§2) Animals 1, 2 and 3 received 0.06 mg Se per kg body weight intramuscularly
(§3) Animals 4, 5 and 6 received 0.06 mg Se per kg body weight intramuscularly
(§4) as sodium selenite combined with ferric dextran, 200 mg Fe per dose.

In series [3] the test system is glutathione peroxidase. The experiment in a line: Serum glutathione peroxidase (gSH-Px) activity in selenium-deficient pigs (Table 1). It counts as in vivo. The protocol: as §1, §2, §3, §4
Series [4] relates to glutathione peroxidase. Description: Serum glutathione peroxidase activity in newborn piglets (Table 2). It counts as in vivo. The protocol: (§5) Six newborn piglets weighing about 1 kg were given an intramuscular dose of 2 ml of the new iron-selenium preparation, each ml containing 100 mg Fe^+3 as ferric dextran and 0.15 mg Se^+4 as sodium selenite. […] This was in spite of the fact that the animals were fed on milk from a sow kept on a low-selenium diet during this period. Five similar piglets, given the same diet, formed the control group. The control animals were given 200 mg Fe^+3 ferric dextran intramuscularly at the same time as injection of the test group. Four weeks later, mean selenium levels of 55.4 ng/ml and a mean glutathione perioxidase activity of 710.8 IU/l were found in their serum. The differences between the mean values of the test group and the control group were statistically significant, the glutathione peroxidase difference at the 99% confidence interval and the Se difference at the 95% interval (Wilcoxson-Mann-Whitney rank sum test).
(§6) 0.3 mg/Se/kg together with 200 mg Fe^+3

Series [5] can be described thus: Serum selenium level in newborn piglets (Table 2). It counts as in vivo. The protocol:
as §5, §6

Series [6] has as its system erythrocyte count. The experiment in a line: Increase in erythrocyte count in piglets, electronic counter. It counts as in vivo. Particulars: eight days after injection of 200 mg Fe^+3 as ferric dextran, with or without Se^+4 0.15 mg/ml (2 ml, s.c. in test group); difference significant at 95% confidence interval. On the procedure: (§7) In another study, two sows were kept on a low-selenium diet during the last four weeks of pregnancy and during lactation. The 25 piglets born alive were divided at the age of three days into two groups (12+13), both groups containing piglets from both sows. Blood samples were taken from all piglets for determination of selenium and glutathione peroxidase values and for blood cell counts. The test group (13 piglets) were given a subcutaneous injection of 200 mg (2 ml) Fe^+3 as ferric dextran, to which sodium selenite had been added to give a Se^+4 content of 0.15 mg/ml. The control group (12) received 200 mg Fe^+3 as ferric dextran without Se^+4. One piglet in the control group later died. After eight days, blood samples were taken from all piglets. […] The difference was statistically significant at the 95% confidence interval using the non-parametric Wilcoxson-Mann-Whitney rank sum test. […] This is an important finding that will play a major role in both human and veterinary medicine. The use of selenium in combination with iron is likely to increase considerably. […] Selenium is probably stored as an iron-selenium complex, which explains the unexpected sufficiency of a single dose given at an early stage up to a weight of about 8 . . . 10 kg.

The nature of series [7]: Growth (weight increase) of piglets injected at three days. It counts as in vivo. Particulars: in words; 200 mg Fe^+3 per animal; 3 weeks. On the procedure:
as §7

Series [8] is described as follows: Serum selenium maintenance / selenium sufficiency in piglets injected at three days. It counts as in vivo. Particulars: in words; 200 mg Fe^+3 per animal; 3 weeks. The protocol:
as §7

The mark [9] stands for this setting: in words, four weeks after treatment.
Setting [10] is: mean of five control piglets, serum, four weeks later, 200 mg Fe^+3 ferric dextran i.m.

On to `O=[Se]([O-])[O-].[Na+].[Na+]` [sodium selenite], for which, in series [1], the “elimination of selenium from the organism” value is listed as “rapidly eliminated” and the “half-life of selenium in the organism” value was “short”. Also, in series [2] (in words), the “serum selenium level over 15 days” value is recorded as “remained elevated for only 8 days”. Besides, the “Mean Se, 0-sample” value in series [2] (mean of 3 pigs, serum, 0-sample (before dosing)) was determined as 23 ng/mL. For the same compound, the “Mean Se at day 8” value in series [2] (mean of 3 pigs, serum, day 8, 11520 min) came out at 49 ng/mL. Moreover, the “Mean Se at day 15” value in series [2] (mean of 3 pigs, serum, day 15, 21600 min) stood at 35 ng/mL. Further, the “gSH-Px, 0-sample” value in series [3] (individual pigs, 0-sample (before dosing), 0.06 mg Se/kg i.m., with ferric dextran 200 mg Fe per dose for animals 4-6) is 373 IU/l and 298 IU/l and 325 IU/l. Besides, the “gSH-Px at day 8” value in series [3] (individual pigs, day 8, 0.06 mg Se/kg i.m., with ferric dextran 200 mg Fe per dose for animals 4-6) is 1065 IU/l and 796 IU/l and 926 IU/l. Moreover, the “gSH-Px at day 15” value in series [3] (individual pigs, day 15, 0.06 mg Se/kg i.m., with ferric dextran 200 mg Fe per dose for animals 4-6) is 632 IU/l and 437 IU/l and 484 IU/l. In addition, the “Mean gSH-Px, 0-sample” value in series [3] (mean of 3 pigs, 0-sample (before dosing), 0.06 mg Se/kg i.m.) was determined as 332 IU/l. In addition, the “Mean gSH-Px at day 8” value in series [3] (mean of 3 pigs, day 8, 0.06 mg Se/kg i.m.) was determined as 926 IU/l. Also, the “Mean gSH-Px at day 15” value in series [3] (mean of 3 pigs, day 15, 0.06 mg Se/kg i.m.) came to 518 IU/l.

For ferric dextran, the “serum level of glutathione peroxidase four weeks later” value in series [4] (setting [9]) is recorded as “indicate a deficiency state”. Besides, the “mean glutathione peroxidase activity, control group” value in series [4] (setting [10]) is 710.8 IU/l. Besides, in series [5] (setting [9]), the “serum level of selenium four weeks later” value is given as “indicate a deficiency state”. In series [5] (setting [10]), the “mean selenium level, control group” value is 55.4 ng/mL. In series [6], the “mean increase in the erythrocyte count” value is 1.41±0.30 10^12 /l. The “weight increase of control animals” value in series [7] was “retardation in weight increase”. For the same compound, the “selenium status of control animals” value in series [8] is on record as “severe selenium deficiency”.
